One block for each molecule: values may come before it.
System: 885512-296-R-J2-PDC complex spheroid viability
Experiment: Anticancer human tumor 885512-296-R-J2-PDC patient-derived breast carcinoma cell line growth inhibition [GQUAD]
Conditions: for IC50: curve of first compound; for viability, T/C: stronger effect = lower value
Method in brief: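 Viability of tumor cells grown as complex spheroids with endothelial and stromal cells, exposed to drug combinations. Top concentration at or near clinical Cmax (else 10 microM), diluted in half-log increments.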

[1] = second compound 0.0316 µM, first compound 0.0316 µM
[2] = second compound 0.0316 µM, first compound 0.1 µM
[3] = second compound 0.0316 µM, first compound 0.316 µM
[4] = second compound 0.0316 µM, first compound 1 µM
[5] = second compound 0.0316 µM, first compound 3.16 µM
[6] = second compound 0.0316 µM, first compound 10 µM
[7] = second compound 0.1 µM, first compound 0.0316 µM
[8] = second compound 0.1 µM, first compound 0.1 µM
[9] = second compound 0.1 µM, first compound 0.316 µM
[10] = second compound 0.1 µM, first compound 1 µM
[11] = second compound 0.1 µM, first compound 3.16 µM
[12] = second compound 0.1 µM, first compound 10 µM
[13] = second compound 0.316 µM, first compound 0.0316 µM
[14] = second compound 0.316 µM, first compound 0.1 µM
[15] = second compound 0.316 µM, first compound 0.316 µM
[16] = second compound 0.316 µM, first compound 1 µM
[17] = second compound 0.316 µM, first compound 3.16 µM
[18] = second compound 0.316 µM, first compound 10 µM
[19] = second compound 1 µM, first compound 0.0316 µM
[20] = second compound 1 µM, first compound 0.1 µM
[21] = second compound 1 µM, first compound 0.316 µM
[22] = second compound 1 µM, first compound 1 µM
[23] = second compound 1 µM, first compound 3.16 µM
[24] = second compound 1 µM, first compound 10 µM
[25] = second compound 3.16 µM, first compound 0.0316 µM
[26] = second compound 3.16 µM, first compound 0.1 µM
[27] = second compound 3.16 µM, first compound 0.316 µM
[28] = second compound 3.16 µM, first compound 1 µM
[29] = second compound 3.16 µM, first compound 3.16 µM
[30] = second compound 3.16 µM, first compound 10 µM
[31] = second compound 10 µM, first compound 0.0316 µM
[32] = second compound 10 µM, first compound 0.1 µM
[33] = second compound 10 µM, first compound 0.316 µM
[34] = second compound 10 µM, first compound 1 µM
[35] = second compound 10 µM, first compound 3.16 µM
[36] = second compound 10 µM, first compound 10 µM
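Throughout, for viability, T/C: percent of tumor spheroid viability relative to DMSO vehicle control wells.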

IC50 (second compound 0.0316 µM): > 10 µM | IC50 (second compound 0.1 µM): > 10 µM | IC50 (second compound 0.316 µM): < 0.0316 µM | IC50 (second compound 1 µM): < 0.0316 µM | IC50 (second compound 3.16 µM): < 0.0316 µM | IC50 (second compound 10 µM): < 0.0316 µM
Structure (SMILES): Cc1cccc(N(C)C(=O)C2C(O)CCN2c2nc(C)cc(C(F)(F)F)c2C#N)c1 (stereo unspecified) + Cc1cnc(CNC(=O)c2c(=O)c3ccc(N4CCCN(C)CC4)nc3n3c2sc2ccccc23)cn1
viability, T/C [1]: 93.2% | viability, T/C [2]: 86.2% | viability, T/C [3]: 87.4% | viability, T/C [4]: 82.8% | viability, T/C [5]: 91.4% | viability, T/C [6]: 75.6% | viability, T/C [7]: 65.8% | viability, T/C [8]: 64.4% | viability, T/C [9]: 63.1% | viability, T/C [10]: 61.2% | viability, T/C [11]: 52.5% | viability, T/C [12]: 63.9% | viability, T/C [13]: 31% | viability, T/C [14]: 36.2% | viability, T/C [15]: 35.8% | viability, T/C [16]: 33.9% | viability, T/C [17]: 28.6% | viability, T/C [18]: 28.6% | viability, T/C [19]: 26.3% | viability, T/C [20]: 29% | viability, T/C [21]: 28.4% | viability, T/C [22]: 25.6% | viability, T/C [23]: 27.3% | viability, T/C [24]: 28.7% | viability, T/C [25]: 43.4% | viability, T/C [26]: 25.7% | viability, T/C [27]: 30.3% | viability, T/C [28]: 30.5% | viability, T/C [29]: 28.5% | viability, T/C [30]: 30.2% | viability, T/C [31]: 0.21% | viability, T/C [32]: 0.26% | viability, T/C [33]: 0.26% | viability, T/C [34]: 0.25% | viability, T/C [35]: 0.25% | viability, T/C [36]: 0.25%

Structure (SMILES): COc1cc(C2c3cc4c(cc3C(OC3OC5COC(C)OC5C(O)C3O)C3COC(=O)C23)OCO4)cc(OC)c1O (stereo unspecified) + CN(C)c1ccc(Nc2c3ccc(NC(=O)CCN4CCCC4)cc3nc3cc(NC(=O)CCN4CCCC4)ccc23)cc1
IC50 (second compound 0.0316 µM): 0.59 µM | IC50 (second compound 0.1 µM): 0.641 µM | IC50 (second compound 0.316 µM): 0.584 µM | IC50 (second compound 1 µM): 0.574 µM | IC50 (second compound 3.16 µM): 0.614 µM | IC50 (second compound 10 µM): < 0.0316 µM | viability, T/C [1]: 106% | viability, T/C [2]: 96.7% | viability, T/C [3]: 73% | viability, T/C [4]: 30.5% | viability, T/C [5]: 13.4% | viability, T/C [6]: 8.11% | viability, T/C [7]: 106% | viability, T/C [8]: 94.4% | viability, T/C [9]: 77.1% | viability, T/C [10]: 33.1% | viability, T/C [11]: 13.5% | viability, T/C [12]: 9.28% | viability, T/C [13]: 100% | viability, T/C [14]: 111% | viability, T/C [15]: 73.3% | viability, T/C [16]: 28.8% | viability, T/C [17]: 13% | viability, T/C [18]: 7.51% | viability, T/C [19]: 88.4% | viability, T/C [20]: 97.5% | viability, T/C [21]: 72.5% | viability, T/C [22]: 28.2% | viability, T/C [23]: 13.1% | viability, T/C [24]: 7.5% | viability, T/C [25]: 88.5% | viability, T/C [26]: 83.8% | viability, T/C [27]: 78.8% | viability, T/C [28]: 28.8% | viability, T/C [29]: 14.4% | viability, T/C [30]: 10.3% | viability, T/C [31]: 18.7% | viability, T/C [32]: 24% | viability, T/C [33]: 22.1% | viability, T/C [34]: 11.4% | viability, T/C [35]: 10.1% | viability, T/C [36]: 8.35%

Structure (SMILES): O=C(NO)c1cnc(N2CCN(S(=O)(=O)c3ccc4ccccc4c3)CC2)nc1 + Cc1[nH]c2ccc(F)cc2c1-c1nc2c3cccnc3c3ncccc3c2[nH]1
IC50 (second compound 0.0316 µM): < 0.0316 µM | IC50 (second compound 0.1 µM): < 0.0316 µM | IC50 (second compound 0.316 µM): < 0.0316 µM | IC50 (second compound 1 µM): < 0.0316 µM | IC50 (second compound 3.16 µM): < 0.0316 µM | IC50 (second compound 10 µM): < 0.0316 µM | viability, T/C [1]: 7.49% | viability, T/C [2]: 2.85% | viability, T/C [3]: 3.25% | viability, T/C [4]: 3.35% | viability, T/C [5]: 2.95% | viability, T/C [6]: 3.28% | viability, T/C [7]: 6.66% | viability, T/C [8]: 3.49% | viability, T/C [9]: 2.89% | viability, T/C [10]: 3.93% | viability, T/C [11]: 2.97% | viability, T/C [12]: 4.1% | viability, T/C [13]: 7.12% | viability, T/C [14]: 4.32% | viability, T/C [15]: 3.29% | viability, T/C [16]: 3.62% | viability, T/C [17]: 3.66% | viability, T/C [18]: 4.67% | viability, T/C [19]: 6.46% | viability, T/C [20]: 4.49% | viability, T/C [21]: 3.76% | viability, T/C [22]: 5.02% | viability, T/C [23]: 5.46% | viability, T/C [24]: 3.77% | viability, T/C [25]: 2.35% | viability, T/C [26]: 2.1% | viability, T/C [27]: 2.47% | viability, T/C [28]: 2.68% | viability, T/C [29]: 1.7% | viability, T/C [30]: 2.56% | viability, T/C [31]: 1.59% | viability, T/C [32]: 2.99% | viability, T/C [33]: 1.66% | viability, T/C [34]: 1.46% | viability, T/C [35]: 1.54% | viability, T/C [36]: 2.58%

— PubChem BioAssay AID2060490 (Molecular Pharmacology Branch, DTP, NCI, 2025)
